Holding throughout (experiment): NCI-60 cell line screen, 48 h
Assay [1] concerns SNB-19 CNS.
Assay [2] relates to 786-0 renal.
In assay [3] the test system is DU-145 prostate.
In assay [4] the test system is SF-295 CNS.
Assay [5] has as its system SR leukemia.
Assay [6] has as its system SF-268 CNS.
For assay [7], the system named is PC-3 prostate.
In assay [8] the test system is RXF 393 renal.
Assay [9] concerns LOX IMVI melanoma.
Assay [10] relates to NCI-H460 lung.

Values joined by “and” are separate entries in the source; they are usually repeats but may differ in a detail not shown here. Equal entries are not always repeated.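 Protocol summary: plate cells (96-well), add compound at 5 concentrations, incubate 48 h, interpolate endpoints linearly. GI50 is the concentration that inhibits growth by half. TGI marks complete inhibition of growth.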

In the case of `NC(N)=NC(N)=Nc1cc2ccccc2c2ccccc12`, the GI50 in assay [1] is 7.69 µM; in [2], 7.23 µM; in assay [3] it was 11.9 µM; in assay [4] it was 13.3 µM; in assay [5], 2.68 µM; in [6] it was 9.61 µM. For the same compound, the GI50 in assay [7] was 7.51 µM; in assay [8], 10.6 µM; in assay [9], 5.15 µM; in assay [10] it was 5.13 µM. Moreover, the TGI was found to be 21.6 µM in assay [1]; 22.5 µM in [2]; 25 µM in assay [3]; 28.4 µM in assay [4]; 9.34 µM in [5]; 24.1 µM in assay [6]. In addition, the TGI in assay [7] turned out to be 24.9 µM; in [8], 24.1 µM; in assay [9], 22 µM; in [10], 19.4 µM.
With `Cc1cc(C2CCCCC2)n(O)c(=O)c1`, the GI50 in assay [1] was 2.37 µM; in [2], 2.26 µM; in assay [3], 2.04 µM; in [4], 0.81 µM; in assay [5], 0.66 µM; in assay [6] it was 1.27 µM. The GI50 is 3.02 µM in assay [7], 3.02 µM in assay [8], 0.757 µM in [9] and 0.507 µM in assay [10]. For the same compound, the TGI in assay [1] was over 100 µM; in [2] it was over 100 µM; in assay [3], over 100 µM; in assay [4] it was 86.8 µM and > 100 µM; in [5], over 100 µM; in [6], over 100 µM. Further, the TGI in assay [7] is over 100 µM; in assay [8] it was > 100 µM and 97.2 µM; in [9] it was 80.3 µM and 80.1 µM.
For `COc1ccc(/C(=N/Nc2ccc([N+](=O)[O-])cc2)Sc2cc(Cl)c(C)cc2S(N)(=O)=O)cc1`, the GI50 in [1] was 7.06 µM; in assay [2] it was 4.21 µM; in [3], 3.8 µM; in assay [4], 3.31 µM; in [5] it was 2.17 µM; in assay [6], 6.66 µM. The GI50 in assay [7] was 5.2 µM; in assay [8] it was 4.3 µM; in assay [9], 3.68 µM; in assay [10] it was 5.55 µM. Besides, the TGI in assay [1] was found to be 20.3 µM; in [2], 14.9 µM; in assay [3], 9.77 µM; in assay [4], 8.78 µM; in assay [5] it was 5.41 µM; in assay [6], 19.9 µM. The TGI in assay [7] was 17.6 µM; in assay [8], 11.5 µM; in assay [9], 10.4 µM; in [10], 24.2 µM.
For the compound `COc1cc2c3c(n(CCCBr)c(=O)c2cc1OC)-c1ccc(NC(C)=O)cc1C3=O`, the GI50 was 3.19 µM in [1]; 5.4 µM in [2]; 4.65 µM in [3]; 0.828 µM in assay [4]; 0.574 µM in assay [5]; 2.11 µM in assay [6]. For the same compound, the GI50 in assay [7] was 24.8 µM; in [8], 13.3 µM; in assay [9], 2.1 µM; in [10] it was 0.506 µM. For the same compound, the TGI in [1] is over 100 µM; in [2], 25.2 µM; in assay [3], over 100 µM; in assay [4], 11.5 µM; in assay [5] it was 12.6 µM; in assay [6], over 100 µM. Also, the TGI in assay [7] was over 100 µM; in [8], 38.2 µM; in assay [9] it was 15 µM; in assay [10], 7.31 µM.
With `O=C(O)c1cc(N=Nc2ccc([As](=O)(O)O)cc2)ccc1O`, the TGI in assay [1], in assay [2], in assay [3], in assay [4], in [5] and in assay [6] was over 100 µM each time. For the same compound, the TGI in assay [7], in [8], in [9] and in assay [10] was over 100 µM each time.
As to `CCCNC(=S)N/N=C(\C)c1ccccn1`, the GI50 is 1.81 µM in assay [1]; 0.959 µM in assay [2]; 1.1 µM in [3]; 0.294 µM in assay [4]; 0.0517 µM in [5]; 0.226 µM in assay [6]. Besides, the GI50 was 0.0471 µM in assay [7], 0.847 µM in assay [8], 0.0436 µM in [9] and 0.242 µM in assay [10]. For the same compound, the TGI in assay [1] is over 100 µM; in assay [2] it was over 26 µM; in [3] it was over 42.9 µM; in assay [4], over 100 µM; in assay [5], 4.37 µM; in assay [6], over 51.1 µM. Also, the TGI in assay [7] was over 100 µM; in [8], 6.55 µM; in assay [9] it was over 100 µM; in assay [10] it was 4.92 µM.
For `CC(C)(C)OC(=O)N(CCCN(CCn1c2c(c3ccccc3c1=O)C(=O)c1ccccc1-2)C(=O)OC(C)(C)C)CCn1c2c(c3ccccc3c1=O)C(=O)c1ccccc1-2`, the GI50 in assay [1] is over 50 µM; in [2], 16.5 µM; in assay [3], over 50 µM; in [4], 15.3 µM; in assay [5], 2.07 µM; in assay [6] it was 28.2 µM. The GI50 in assay [7] is over 50 µM; in assay [8], 25.9 µM; in [9] it was over 50 µM; in assay [10] it was 49.7 µM. Also, the TGI is over 50 µM in [1]; over 50 µM in assay [2]; over 50 µM in assay [3]; over 50 µM in assay [4]; 8.87 µM in assay [5]; over 50 µM in [6]. Besides, the TGI in assay [7], in [8], in [9] and in [10] was over 50 µM throughout.
With `COc1ccc(S(=O)(=O)N(Cc2ccc3c(n2)C=CC(C)(C)O3)C2CCC2)cc1OC`, the GI50 in assay [2] is under 0.01 µM; in [3], under 0.01 µM; in assay [4], 0.0134 µM; in assay [5] it was under 0.01 µM; in assay [6], under 0.01 µM; in [7], under 0.01 µM. Besides, the figures for the GI50 in assay [8], in assay [9] and in assay [10] were under 0.01 µM, under 0.01 µM and 0.0196 µM, respectively. The TGI in [2] was determined as 0.374 µM; in [3], 3.45 µM; in assay [4], 0.542 µM; in assay [5] it was 0.0324 µM; in assay [6], 1.13 µM; in assay [7], 2.37 µM. The TGI in assay [8] stood at 0.222 µM; in assay [9], 0.176 µM.

The values are drawn from PubChem BioAssay (NCI).
